PMC9369311, “Examination of Intracellular GPCR-Mediated Signaling with High Temporal Resolution” (International Journal of Molecular Sciences, 2022)
Blank lines part the entries; values can stand above or below the molecule they belong to.

What was measured:
[1] = target: T1, DmOctβ1 receptor (Drosophila melanogaster, UniProt Q9VCZ3); assay: Stopped-flow flash photolysis of caged octopamine in Fluo-4-loaded flpTM-DmOctβ1 cells; format: cell-based; details: for response time after UV-flash: 10 µM caged compound, 50 ms flash, 100 µM IBMX
T1 construct: expressed in transfected cells; host or cells: flpTM cells (HEK293 flpIn, Invitrogen #750-07, carrying the CNGA2 variant)
T1 sequence (Q9VCZ3 1-508): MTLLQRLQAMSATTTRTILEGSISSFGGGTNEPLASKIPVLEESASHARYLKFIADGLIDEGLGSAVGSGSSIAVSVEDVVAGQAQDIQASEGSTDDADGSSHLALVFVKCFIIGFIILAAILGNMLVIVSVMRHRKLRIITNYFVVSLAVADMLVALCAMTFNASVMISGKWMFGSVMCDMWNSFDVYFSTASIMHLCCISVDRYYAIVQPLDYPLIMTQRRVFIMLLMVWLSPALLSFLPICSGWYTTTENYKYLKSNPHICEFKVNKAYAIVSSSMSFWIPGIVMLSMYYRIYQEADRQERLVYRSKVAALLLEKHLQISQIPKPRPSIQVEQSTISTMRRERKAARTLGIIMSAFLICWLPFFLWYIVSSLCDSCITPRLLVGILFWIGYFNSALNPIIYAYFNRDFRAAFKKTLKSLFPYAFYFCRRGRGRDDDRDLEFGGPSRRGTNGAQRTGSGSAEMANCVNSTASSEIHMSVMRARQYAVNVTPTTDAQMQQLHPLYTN
Source text: Neutral density filters that regulate the transmission of light (5%, 25%, 50%, 80%, 100%) were installed, allowing application of different light intensities.
In the previous stopped-flow experiments, we initiated the DmOctβ1 receptor-activated reaction cascade by mixing cells with increasing concentrations of octopamine. Now, we used a similar strategy but substituted the biogenic amine for a constant concentration of octopamine fused to a coumarin-based cage group ({8-[bis(carboxymethyl)aminomethyl]-6-bromo-7-hydroxycoumarin-4-yl}methoxycarbon-yl; BBHCMOC-octopamine) from which the biologically active octopamine was released by light flashes. The Fluo-4-loaded flpTM-DmOctβ1 cells were mixed with a final concentration of 10 µM BBHCMOC-octopamine in the cuvette of the stopped-flow apparatus. After 2 s, a UV-flash was triggered for 50 ms and the fluorescence intensities were recorded. The time when triggering the light flash was defined as time point t = 0. Different light intensities were successively applied (5%, 25%, 50%, 80%, 100% intensity). To avoid fluctuations in the [cAMP]i due to cell-endogenous phosphodiesterase activity, the experiments were performed in the presence of 100 µM IBMX. Figure 7 summarizes the results that were obtained with BBHCMOC-octopamine.
For the photolysis of the caged compounds with ultraviolet (UV)-light, a Xe-flash lamp (JML-C2; Rapp Opto Electronics, Wedel, Germany) was coupled to the cuvette via an UV-light permeable light guide (Schott). A UV-2 interference filter was placed between the Xe-flash lamp and light guide to select for the UV-light needed for the photolysis of the caged compounds. Additionally, it prevents the photomultiplier from being hit by light that is able to pass the emission filter. […] To maximize the detection of the emission light, a test solution containing 50 nM of fluorescein in ES was added to the cuvette and the light guide was fixed to the Xe/Hg-lamp at a position where the photomultiplier detected maximal intensity.

[2] = in vitro; read-out: dissociation constant (Kd) for Ca2+; cited from earlier work
[3] = system: CNG channel (A2 homomer); details: read-out: EC50 for opening the CNG channel, electrophysiological experiments, ref Ludwig et al., 1990; cited from earlier work

response time after UV-flash ([1]; 5% light intensity): about 16 s
response time after UV-flash ([1]; 100% light intensity): 6 s and ≈ 6 s
octopamine released by photolysis ([1]; from 10 µM BBHCMOC-octopamine, based on quantum yield): approximately 1 µM
SMILES: O=C(O)CN(CC(=O)O)Cc1c(O)c(Br)cc2c(COC(=O)NCC(O)c3ccc(O)cc3)cc(=O)oc12 (centres unmarked) [BBHCMOC-octopamine]

SMILES: Cc1ccc(N(CC(=O)O)CC(=O)O)c(OCCOc2cc(-c3c4cc(F)c(=O)cc-4oc4cc(O)c(F)cc34)ccc2N(CC(=O)O)CC(=O)O)c1 [Fluo-4]
Kd [2]: 0.345 µM

SMILES: Nc1ncnc2c1ncn2[C@@H]1O[C@@H]2COP(=O)(O)O[C@H]2[C@H]1O [cAMP, cyclic adenosine monophosphate]
EC50 [3]: ~2 µM
